# Assay results reported in patent US4687864A, “5-fluoro-3-oxa-prostacyclin compounds” (G. D. Searle & Co., priority 1985, dated 1987).
# Legend:
# [1] = tested on: ADP-Induced platelet aggregation; assay: Inhibition of ADP-induced platelet aggregation, in vitro (platelet rich plasma); assay type: cell-based; conditions: Rattus norvegicus, compound preincubated 1 minute, read-out: Results (IC50 (Molar))
# Method: Inhibition of ADP-Induced platelet aggregation, in vitro.
# Aggregation was determined using a Payton Dual Channel Aggregation Module. A Riker-Denshi recorder was used fo recording the aggregation curves.
# The addition of ADP to platelet-rich plasma induces platelet aggregation.
# After the PRP fraction was removed, the remainder was spun at 900×g for 15 mins. to obtain platelet poor plasma (PPP) (1800 RPM in IEC PR 6000). The number of platelets per ml PRP is determined by counting a 50 μl aliquot of PRP in a Coutter ZBI counter and channelyzer Model C-1000.
# PRP is diluted with PPP 1:2 to obtain a count of approx. 25000 on the screen or 10^9 platelets/ml PRP to evaluate the anti-aggregating agent. The module was standardized with an aliquot of PPP and that of diluted PRP.
# The aggregating agent used is ADP prepared as follows:
# Prostacyclin is used as the standard of antiaggregatory activity for determining the potency of compounds tested. A 10^2 M solution (to give a starting concentration of 10^-4 M when 4 μL is added to 400 μL PRP) is diluted serially to obtain solutions with final concentrations of 10^-6, 10^-7, 10^-8, 10^-9 M.
# Determine the dose of ADP which on a standard curve would be on the linear portion and allow reversal of the aggregation curve.
# Determine the PGI2 standard curve of percentage inhibition of aggregation. Use saline in control cuvette to compare the extent of inhibition by PGI2 are represented by the depth of the aggregation curve. Allow the PRP to preincubate for approximately one minute prior to the addition of prostacyclin and another minute with PGI2 prior to the addition of ADP.
# The % inhibition is plotted against prostacyclin dose on semilog paper.
# The test compound is added to PRP and preincubated for 1 minute prior to ADP administration.
# [2] = tested on: ulcerogenic effect induced by certain non-steriodal and steroidal anti-inflammatory agents; conditions: rats, concomitant oral administration; cited from earlier work
# [3] = physiological pH; cited from earlier work
# platelet aggregation = conditions: background, cited from earlier work
IC50 [1] [nM],Compound,ulcerogenic effect induced by anti-inflammatory agents [2],further results
4000,"CCCCC[C@H](O)/C=C/[C@@H]1[C@H]2C=C(C(F)COCC(=O)OC(C)(C)C)O[C@H]2C[C@H]1O (relative stereo) [1,1-Dimethylethyl(3aS,3aα,6aα)[2-fluoro-2-[4,5,6,6aα-tetrahyro-5β-hydroxy-4α-(3S*-hydroxy-1E-octenyl)-3aS,3aαH,-cyclopenta[b]furanyl]ethoxy]acetate]",,
1000,"CCCCC[C@H](O)/C=C/[C@@H]1[C@H]2C/C(=C/COCC(=O)OC(C)(C)C)O[C@H]2C[C@H]1O (relative stereo) [3-oxa prostacyclin Tert-butyl ester, 1,1-Dimethylethyl(3aS,3aα,6aα)[2-[hexahydro-5β-hydroxy-4α-(3S*-hydroxy-1E-octenyl)-2H-cyclopenta-[b]furan-2Z-ylidene]ethoxy]acetate]",,
,"CCCCC[C@H](O)CC[C@H]1[C@H](O)CC(=O)[C@@H]1CCCCCCC(=O)O [13, 14-dihydro-PGE1]",inhibited,
,CCCCC[C@H](O)/C=C/[C@H]1[C@H](O)CC(=O)[C@@H]1CCCCCCC(=O)O [PGE1],inhibited,
,CCCCC[C@H](O)/C=C/[C@H]1[C@H](O)CC(=O)[C@@H]1C/C=C\CCCC(=O)O [PGE2],inhibited,
,CC/C=C\C[C@H](O)/C=C/[C@H]1[C@H](O)CC(=O)[C@@H]1C/C=C\CCCC(=O)O [PGE3],inhibited,
6,"CCCCC[C@H](O)/C=C/[C@@H]1[C@H]2C/C(=C/CCCC(=O)O)O[C@H]2C[C@H]1O [Prostacyclin, (5Z)-9-deoxy-6,9α-epoxy-Δ^5 -PGF1]",,half period of its activity [3]: only about several minutes; duration of antiplatelet aggregation effect (platelet aggregation): short lived; hypotensive effects (platelet aggregation): often affords unwanted hypotensive effects; doses required for platelet aggregation inhibiting action and antihypertensive action (platelet aggregation; selectivity of action): almost equal to each other
